Reference: ChEMBL document CHEMBL3045510, “Phyllostoxin and phyllostin, bioactive metabolites produced by Phyllosticta cirsii, a potential mycoherbicide for Cirsium arvense biocontrol” (J Agric Food Chem, 2008)
Calls of active or inactive are those of the source. The rule behind the calls is not given here.

Key:
Artemia salina = experiment: Toxicity against Artemia salina (brine shrimp) up to 1 mM; assay type: organism-based; settings: in vivo
Lactobacillus sp. = experiment: Antimicrobial activity against Lactobacillus sp. up to 100 ug/disk; assay type: functional, organism-based
Cirsium arvense = experiment: Herbicidal activity against Cirsium arvense (Canada thistle) assessed induction of necrosis on leaves as 1 mM; assay type: functional, organism-based
Escherichia coli = experiment: Antimicrobial activity against Escherichia coli up to 100 ug/disk; assay type: functional, organism-based
Geotrichum candidum = experiment: Antimicrobial activity against Galactomyces geotrichum up to 100 ug/disk; assay type: functional, organism-based

| SMILES | Activity (Artemia salina) | Activity (Lactobacillus sp.) | Activity (Cirsium arvense) | Activity (Escherichia coli) | Activity (Geotrichum candidum) |
| --- | --- | --- | --- | --- | --- |
| COC(=O)C1=C[C@@H](O)[C@@H]2OC(=O)[C@@H](C)O[C@H]2C1 [PHYLLOSTIN] | Non-toxic | inactive | inactive | inactive | inactive |
| CCC(=O)C1(C)C(=O)c2c1ccc(C)c2OC(C)=O (stereo not given) [PHYLLOSTOXIN] | Non-toxic | inactive | Active | inactive | inactive |
